This assay deals with T1, aromatase (Rattus norvegicus, UniProt P22443).
T1 construct: ovarian microsomes are obtained from rats treated with pregnant mares serum gonadotropin; from tissue; host or cells: ovarian microsomes of rats treated with pregnant mares serum gonadotropin
T1 sequence (P22443 1-508): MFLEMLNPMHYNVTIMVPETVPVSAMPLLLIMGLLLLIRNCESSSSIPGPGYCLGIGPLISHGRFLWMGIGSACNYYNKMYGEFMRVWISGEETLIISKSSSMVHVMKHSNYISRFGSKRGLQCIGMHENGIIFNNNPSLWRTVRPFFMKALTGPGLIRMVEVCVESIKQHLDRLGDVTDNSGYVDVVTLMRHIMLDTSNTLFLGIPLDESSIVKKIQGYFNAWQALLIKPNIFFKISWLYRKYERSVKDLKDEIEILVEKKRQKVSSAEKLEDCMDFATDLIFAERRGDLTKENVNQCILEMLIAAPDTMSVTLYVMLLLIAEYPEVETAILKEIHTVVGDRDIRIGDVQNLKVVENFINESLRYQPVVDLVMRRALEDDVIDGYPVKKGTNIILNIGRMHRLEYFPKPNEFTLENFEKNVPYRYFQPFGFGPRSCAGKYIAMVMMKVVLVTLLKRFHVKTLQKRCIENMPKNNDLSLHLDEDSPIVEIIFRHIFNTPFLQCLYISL
The experiment in a line: isolated rat ovarian microsome aromatase inhibition (modified method of Brodie et al.). The format is biochemical. As to conditions: rat ovarian microsomes; substrate androstenedione 0.1 µM; [3H]-H2O release; NADPH generating system; read-out: concentration of inhibitor required to produce a 50% inhibition of enzyme activity (EC50). Here is the method:
In this test system, ovarian microsomes are obtained from rats treated with pregnant mares serum gonadotropin. Test compounds are added to reaction vials containing […] 4-androstene-3,17-dione, 100,000 dpm 1,2[^3H]-androstenedione, the microsomes and a NADPH generating system. The concentrations of the inhibitors tested ranged between […]. […] Potency is determined based on the concentration of inhibitor in µM required to produce a 50% inhibition of enzyme activity (EC50) when the concentration of substrate (androstenedione) is 0.1 µM.

Structures are written as SMILES.

As for `CC(=O)N1CCN(c2ccc(OCC3COC(Cn4ccnc4)(c4ccc(Cl)cc4Cl)O3)cc2)CC1` (stereo not shown) [ketoconazole, 1-acetyl-4-[4-([2-(2,4-dichlorophenyl)-2-(1H-imidazol-1-ylmethyl)-1,3-dioxolan-4-yl]methoxy)-phenyl]piperazine], the EC50 turned out to be 1.1 µM.

Source of the values: EP0165781A1, “Aromatase inhibiting N-substituted imidazole derivatives” (ELI LILLY AND COMPANY, priority 1984, dated 1985).
